Measured values: article PMC4565635, “6-Shogaol Inhibits Breast Cancer Cells and Stem Cell-Like Spheroids by Modulation of Notch Signaling Pathway and Induction of Autophagic Cell Death” (PLoS ONE, 2015)

How the values were obtained:
[1] = system: MCF-7 spheroids; experiment: Primary sphere formation; type: cell-based, human
Method: (§1) 5000 cells/well were seeded in ultra low attachment plates. After 3 days of seeding, the spheres formed were kept with different concentrations of 6-shogaol and/or 25 μM DAPT for 7 days and the number of spheres were counted under the microscope. These primary spheres were dispersed and kept in fresh media without any treatment and counted again after 7 days to check the ability to regrow into secondary spheres. Control primary spheres were also processed similarly for comparison. Spheres were counted in Olympus IX71 microscope using 10X objective.

[2] = system: MCF-7 monolayer; experiment: Cell cycle analysis by flow cytometry (propidium iodide); type: cell-based, human; conditions: 16 μM (2×IC50), control 29%
Method: (§2) Cell cycle distribution of cells treated with 6-shogaol was analyzed by flow cytometric measurement of cellular DNA content. MCF-7 cells (5×10^5 cells/well) were subjected to 6-shogaol treatment for various time points. Culture media containing detached cells were collected and attached cells were trypsinized. Cells were pelleted, fixed in 70% (v/v) ethanol and stored at 4°C. In case of spheroids, cells were treated with different concentrations of 6-shogaol for 48 hours and fixed for further analysis. Before analysis, cells were re-washed with PBS and incubated with 10 μg/ml RNaseA and 400 μg/ml propidium iodide for 30 minutes at 37°C. Data were analyzed using FACS Diva software.

[3] = system: MCF-7 spheroid; experiment: as above; type: cell-based, human; conditions: 25 μM, 48 hours; control 24%
Method: as §2

[4] = system: MCF-7 spheroid; experiment: MTT cytotoxicity assay, spheroids; type: cell-based, human; conditions: for IC50: MTT, 48 hours, drug added three days after seeding
Method: (§3) To check the effect of different drugs on the viability of spheroids, cells were seeded at 2.5×10^4 cells/well in 24-well ultra-low attachment plates and grown as spheroids. After 3 days, 6-shogaol (1–100 μM) or taxol (5 nM-50 μM) or curcumin (2–50 μM) was added to the wells and MTT assay was performed as explained above. Standard deviation was calculated from three independent experiments and the data were represented as the average of three experiments.

[5] = system: MDA MB-231 spheroid; experiment: MTT cytotoxicity assay, spheroids; type: cell-based, human; conditions: for IC50: MTT, 48 hours, drug added three days after seeding
Method: as §3

[6] = system: MCF-7 cells; experiment: DAPI staining for apoptosis (chromatin condensation); type: cell-based, human; conditions: 25 μM
Method: Cells were seeded on cover slips. […] Cells were washed with PBS, fixed with Methanol-EDTA for 10 minutes at -20°C followed by rehydration with PBS at room temperature and incubated with 1 μg/ml DAPI. Mounted coverslips were visualised at 40X magnification under fluorescence microscope (Olympus IX71). Apoptotic cells were counted from five different fields.

[7] = system: MRC5, NP69, HaCaT and HMEC; set-up: method as in PMID 23612072; conditions: cited from earlier work
[8] = system: breast cancer spheroids (CD44+CD24-/low cells); experiment: Flow cytometric analysis of cell surface markers CD44/CD24; type: cell-based, human; conditions: 40 μM, 18 hours; untreated 27.3%
Method: Monolayer cells or spheroids (with or without treatment of 6-shogaol) were dispersed by trypsin-EDTA. Cells were then pelleted down by centrifugation at 1600 rpm for 5 minutes at 4°C and resuspended in 1 ml of DMEM containing 2% FBS. Fluorescein isothiocyanate (FITC)-conjugated CD24 monoclonal antibody and phycoerythrin (PE)-conjugated CD44 monoclonal antibody (BD Biosciences) were added in 1:100 dilution and incubated on ice for 45 minutes in dark. The cells were then analyzed by flow cytometer (BD FACS Aria II) for the expression of CD24 and CD44.

[9] = system: breast cancer spheroids; experiment: Apoptosis detection in spheroids; type: cell-based, human; conditions: 40 μM, upto 72 or 96 hours
[10] = system: MCF-7 monolayer cells; experiment: MTT cytotoxicity assay, monolayer; type: cell-based, human; conditions: drug added one day after seeding
Method: (§4) Monolayer cells (5×10^3cells/well) were seeded in quadruplicates in 96 well plates and were incubated with varying concentrations of 6-shogaol (1–100 μM), taxol (0.2–100 nM) or curcumin (4–80 μM). The effect of the drugs on the viability of all the cell lines was quantified by MTT (3-[4,5-dimethylthiazol-2-yl]-2,5 diphenyltetrazolium bromide) assay at different time points after drug treatment using a Biorad Plate reader. The IC50 values were calculated from the plot of percentage cell viability versus concentration of drug using the nonlinear regression programme of Origin.

[11] = system: MDA-MB-231 monolayer cells; experiment: MTT cytotoxicity assay, monolayer; type: cell-based, human; conditions: drug added one day after seeding
Method: as §4

[12] = system: MCF-7 spheroids; experiment: Secondary sphere formation; type: cell-based, human; conditions: for inhibition of secondary spheroid colonies: regrown 1 week without compound
Method: as §1

[13] = system: HaCaT cells; experiment: MTT cytotoxicity assay, noncancerous cells; type: cell-based, human; conditions: 48 hours
Method: as §4

[14] = system: HEK 293 cells; experiment: MTT cytotoxicity assay, noncancerous cells; type: cell-based, human
Method: as §4

[15] = system: MCF-7 cells; experiment: Annexin V/PI flow-cytometric apoptosis assay; type: cell-based, human; conditions: 25 μM, 48 hours
Method: Apoptosis was quantified by using a FITC Annexin V Apoptosis Detection kit according to manufacturer’s instructions. MCF-7 cells were treated with 15 μM and 25 μM of 6-shogaol for 24, 48 and 72 hours, respectively. Attached and floating cells were collected and analyzed by a flow cytometer (BD FACS Aria II).

[16] = system: LC3-II in MCF7 cells; experiment: Western blot of LC3-II expression; type: cell-based, human; conditions: 48 hours
Method: Lysates were placed into ice for 1 hour to ensure complete lysis followed by centrifugation at 14,000 g for 10 minutes and the supernatant was collected. Proteins were subjected to SDS-PAGE and transferred to polyvinylidene fluoride membrane. The membranes were blocked and incubated overnight with primary antibodies at 4°C followed by incubation with horseradish peroxidase tagged secondary antibodies. The blots were developed using ECL reagent. The primary antibodies were used in the following dilutions: Cleaved Notch1 (1:2000), Hes1 (1:200), Cyclin D1 (1:400), PARP (1:500 for sc) and (1:1000 for CST), LC3A/B (1:500), Bcl-2 (1:1000), Bax (1:1000) and β-actin (1:2000). β-actin was used as loading controls.
Densitometry was conducted for all the western blots using […] software (Bio-Rad). Normalisation was done according to the loading control and fold change was calculated with respect to the control. For graphs, results are depicted as mean ± standard error of mean or standard deviation (calculated from two or more experiments). The p-values were obtained using Student’s unpaired t-test and p < 0.05 was considered to be statistically significant.

Structure (SMILES): CCCCC/C=C/C(=O)CCc1ccc(O)c(OC)c1 [6-shogaol]
- reduction of number of primary spheroid colonies ([1]; 1 μM, 7 days): 2 fold
- average number of spheroid colonies (primary) ([1]; 1 μM, 7 days continuous treatment, control 96): 48 colonies
- inhibition of primary spheroid colonies ([1]; 40 μM, 7 days): 24 fold
- number of spheroid colonies (primary) ([1]; 40 μM, 7 days continuous treatment, control 96): 4 colonies
- percentage of cells in G2/M ([2]; 24h): 48%
- percentage of cells in G2/M ([2]; 48h): 55%
- percentage of cells in G2/M [3]: 42%
- inhibition of cell viability ([4]; 10 μM, after 6 days): 46%
- inhibition of cell viability ([4]; 10 μM, day 4): ~ 35%
- inhibition of cell viability ([4]; 20 μM, day 4): 56%
- inhibition of cell viability ([4]; 40 μM, day 4): 83%
- effective concentration in spheroids versus monolayer cells ([4]; MCF-7 spheroids vs MCF-7 monolayer): 5 fold
- IC50 [4]: 39.5 ± 0.62 µM
- effective concentration in spheroids versus monolayer cells ([5]; MDA-MB-231 spheroids vs MDA-MB-231 monolayer): 2 fold
- IC50 [5]: 11.2 ± 0.83 µM
- potency against MDA-MB-231 spheroids versus MCF-7 spheroids ([5]; more potent against MDA-MB-231 spheroids): ~ 3 fold
- apoptosis as measured by chromatin condensation ([6]; 48 hours): 19%
- apoptosis as measured by chromatin condensation ([6]; 72 hours): 28%
- toxicity to normal cells [7]: not toxic
- percentage of CD44+CD24-/low cells (Q1) [8]: 2.3%
- apoptosis in breast cancer spheroids [9]: not able to detect appreciable amount of apoptosis
- IC50 ([10]; 48 hours): 7.94 ± 0.57 µM
- IC50 ([11]; 48 hours): 5.67 ± 0.73 µM
- secondary sphere formation ([12]; concentrations above 10 μM): Not a single secondary sphere was found
- inhibition of secondary spheroid colonies ([12]; primary spheroids treated with 1 μM for 1 week, control ~55 colonies): 71%
- inhibition of secondary spheroid colonies ([12]; primary spheroids treated with 5 μM for 1 week): 80%
- inhibition of secondary spheroid colonies ([12]; primary spheroids treated with 10 μM for 1 week): 94.5%
- IC50 [13]: 103.8 ± 0.67 µM
- IC50 ([14]; 48 hours): 69.97 ± 0.52 µM
- early apoptotic cells (Annexin positive/PI negative) [15]: 11%
- fold increase in LC3-II expression ([16]; 5 μM 6-shogaol alone, relative to control): 1.8 fold
- fold increase in LC3-II expression ([16]; 5 μM 6-shogaol in combination with low concentration of chloroquine): 3.3 fold
- fold increase in LC3-II expression ([16]; 15 μM 6-shogaol alone, relative to control): 2.1 fold
- fold increase in LC3-II expression ([16]; 15 μM 6-shogaol in combination with low concentration of chloroquine): 3.43 fold

Structure (SMILES): COc1cc(/C=C/C(=O)CC(=O)/C=C/c2ccc(O)c(OC)c2)ccc1O [Curcumin, curcumin]
- IC50 ([4]; Homo sapiens, MCF7): 7.27 ± 0.54 µM
- IC50 ([10]; Homo sapiens, MCF7, 48 hours): 37.1 ± 0.85 µM
- IC50 ([13]; Homo sapiens, HaCaT): 10.4 ± 0.87 µM
- IC50 ([14]; Homo sapiens, HEK293, 48 hours): 23.1 ± 0.68 µM

Structure (SMILES): CC(=O)O[C@H]1C(=O)[C@@]2(C)[C@H]([C@H](OC(=O)c3ccccc3)[C@]3(O)C[C@H](OC(=O)[C@H](O)[C@@H](NC(=O)c4ccccc4)c4ccccc4)C(C)=C1C3(C)C)[C@]1(OC(C)=O)CO[C@@H]1C[C@@H]2O [Taxol, reference compound]
- IC50 ([4]; Homo sapiens, MCF7): > 50 µM
- IC50 ([5]; Homo sapiens, MDA-MB-231): > 20 µM
- IC50 ([10]; Homo sapiens, MCF7, 48 hours): 0.00492 ± 0.00071 µM
- IC50 ([11]; Homo sapiens, MDA-MB-231, 48 hours): 0.00286 ± 0.00066 µM
- IC50 ([13]; Homo sapiens, HaCaT): 0.0427 ± 0.00075 µM
- IC50 ([14]; Homo sapiens, HEK293, 48 hours): 0.1038 ± 0.00048 µM
